Reference: US12643867B2, “Compositions and uses thereof” (University of Virginia Patent Foundation, priority 2017, dated 2026)

Tests used:
Test in all cases: SILAC LC-MS ATP acyl phosphate probe competition, native kinases in HEK293T
Assay type in all cases: binding
[1] = target: T1, CSK (Tyrosine-protein kinase CSK) (Homo sapiens, UniProt P41240); conditions: site ACT; ATP 1 mM; Ketanserin, Ritanserin 100 μM; RF001 1 mM
T1 construct: measured against >50 native kinases quantified in HEK293T soluble proteomes; endogenous in cells; host or cells: HEK293T soluble proteome
Procedure, shortened: (§1)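 HEK293T SILAC proteomes, 2 mg/ml; heavy + compound (from 50× DMSO stock), light + DMSO, 30 min, 25° C. Mix 1:1, MeOH/CHCl3 extraction, DTT/iodoacetamide, trypsin/Lys-C 3 h 37° C. Avidin enrichment of desthiobiotin-modified peptides; Orbitrap Q Exactive Plus LC-MS, top-10 DDA.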

[2] = target: T2, KS6B2 (Ribosomal protein S6 kinase 2) (Homo sapiens, UniProt Q9UBS0); conditions: site Lys2; ATP 1 mM; Ketanserin, Ritanserin 100 μM; RF001 1 mM
T2 construct: measured against >50 native kinases quantified in HEK293T soluble proteomes; endogenous in cells; host or cells: HEK293T soluble proteome
Procedure, shortened: as §1

[3] = target: T3, M3K4 (Mitogen-activated protein kinase kinase kinase 4) (Homo sapiens, UniProt Q9Y6R4); conditions: site Lys2; ATP 1 mM; Ketanserin, Ritanserin 100 μM; RF001 1 mM
T3 construct: Native kinases; endogenous in cells; host or cells: HEK293T soluble proteome
Procedure, shortened: as §1

[4] = target: T4, M4K3 (Mitogen-activated protein kinase kinase kinase kinase 3) (Homo sapiens, UniProt Q8IVH8); conditions: site Lys2; ATP 1 mM; Ketanserin, Ritanserin 100 μM; RF001 1 mM
T4 construct: Native kinases; endogenous in cells; host or cells: HEK293T soluble proteome
T4 sequence (Q8IVH8 1-894): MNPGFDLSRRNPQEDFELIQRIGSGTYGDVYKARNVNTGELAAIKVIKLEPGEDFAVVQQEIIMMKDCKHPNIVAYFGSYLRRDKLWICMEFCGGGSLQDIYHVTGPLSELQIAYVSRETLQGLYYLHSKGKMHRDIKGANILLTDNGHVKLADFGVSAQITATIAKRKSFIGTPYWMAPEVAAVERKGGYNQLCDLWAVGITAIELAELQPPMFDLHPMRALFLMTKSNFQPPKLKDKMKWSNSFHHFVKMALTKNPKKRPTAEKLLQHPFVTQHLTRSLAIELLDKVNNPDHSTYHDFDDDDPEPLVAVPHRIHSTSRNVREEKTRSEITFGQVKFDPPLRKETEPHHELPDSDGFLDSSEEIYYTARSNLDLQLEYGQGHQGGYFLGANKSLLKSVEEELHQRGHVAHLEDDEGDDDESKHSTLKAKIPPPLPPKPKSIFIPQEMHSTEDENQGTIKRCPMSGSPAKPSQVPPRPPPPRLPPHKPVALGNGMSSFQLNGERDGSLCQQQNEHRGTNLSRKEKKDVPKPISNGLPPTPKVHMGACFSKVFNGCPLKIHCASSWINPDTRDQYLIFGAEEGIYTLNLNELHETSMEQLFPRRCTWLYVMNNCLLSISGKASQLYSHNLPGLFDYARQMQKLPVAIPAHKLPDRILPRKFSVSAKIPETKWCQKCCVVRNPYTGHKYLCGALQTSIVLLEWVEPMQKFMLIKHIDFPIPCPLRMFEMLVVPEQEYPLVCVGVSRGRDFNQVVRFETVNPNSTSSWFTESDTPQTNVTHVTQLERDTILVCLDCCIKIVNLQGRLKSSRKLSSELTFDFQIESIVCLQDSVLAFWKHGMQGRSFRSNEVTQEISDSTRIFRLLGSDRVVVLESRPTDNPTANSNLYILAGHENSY
Procedure, shortened: as §1

T1 sequence (P41240 whole entry): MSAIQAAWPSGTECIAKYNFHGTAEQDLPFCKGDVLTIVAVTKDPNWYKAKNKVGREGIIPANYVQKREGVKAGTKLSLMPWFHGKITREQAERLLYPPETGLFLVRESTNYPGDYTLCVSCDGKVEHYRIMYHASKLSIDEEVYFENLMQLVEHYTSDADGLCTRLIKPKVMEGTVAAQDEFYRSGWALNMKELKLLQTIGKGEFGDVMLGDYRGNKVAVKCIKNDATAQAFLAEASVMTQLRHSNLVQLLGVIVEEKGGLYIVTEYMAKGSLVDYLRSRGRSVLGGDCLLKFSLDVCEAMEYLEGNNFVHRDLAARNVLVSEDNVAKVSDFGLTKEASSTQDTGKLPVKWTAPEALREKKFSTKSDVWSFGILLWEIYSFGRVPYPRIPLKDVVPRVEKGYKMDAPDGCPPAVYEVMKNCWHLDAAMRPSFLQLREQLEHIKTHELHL
T3 sequence (Q9Y6R4 whole entry): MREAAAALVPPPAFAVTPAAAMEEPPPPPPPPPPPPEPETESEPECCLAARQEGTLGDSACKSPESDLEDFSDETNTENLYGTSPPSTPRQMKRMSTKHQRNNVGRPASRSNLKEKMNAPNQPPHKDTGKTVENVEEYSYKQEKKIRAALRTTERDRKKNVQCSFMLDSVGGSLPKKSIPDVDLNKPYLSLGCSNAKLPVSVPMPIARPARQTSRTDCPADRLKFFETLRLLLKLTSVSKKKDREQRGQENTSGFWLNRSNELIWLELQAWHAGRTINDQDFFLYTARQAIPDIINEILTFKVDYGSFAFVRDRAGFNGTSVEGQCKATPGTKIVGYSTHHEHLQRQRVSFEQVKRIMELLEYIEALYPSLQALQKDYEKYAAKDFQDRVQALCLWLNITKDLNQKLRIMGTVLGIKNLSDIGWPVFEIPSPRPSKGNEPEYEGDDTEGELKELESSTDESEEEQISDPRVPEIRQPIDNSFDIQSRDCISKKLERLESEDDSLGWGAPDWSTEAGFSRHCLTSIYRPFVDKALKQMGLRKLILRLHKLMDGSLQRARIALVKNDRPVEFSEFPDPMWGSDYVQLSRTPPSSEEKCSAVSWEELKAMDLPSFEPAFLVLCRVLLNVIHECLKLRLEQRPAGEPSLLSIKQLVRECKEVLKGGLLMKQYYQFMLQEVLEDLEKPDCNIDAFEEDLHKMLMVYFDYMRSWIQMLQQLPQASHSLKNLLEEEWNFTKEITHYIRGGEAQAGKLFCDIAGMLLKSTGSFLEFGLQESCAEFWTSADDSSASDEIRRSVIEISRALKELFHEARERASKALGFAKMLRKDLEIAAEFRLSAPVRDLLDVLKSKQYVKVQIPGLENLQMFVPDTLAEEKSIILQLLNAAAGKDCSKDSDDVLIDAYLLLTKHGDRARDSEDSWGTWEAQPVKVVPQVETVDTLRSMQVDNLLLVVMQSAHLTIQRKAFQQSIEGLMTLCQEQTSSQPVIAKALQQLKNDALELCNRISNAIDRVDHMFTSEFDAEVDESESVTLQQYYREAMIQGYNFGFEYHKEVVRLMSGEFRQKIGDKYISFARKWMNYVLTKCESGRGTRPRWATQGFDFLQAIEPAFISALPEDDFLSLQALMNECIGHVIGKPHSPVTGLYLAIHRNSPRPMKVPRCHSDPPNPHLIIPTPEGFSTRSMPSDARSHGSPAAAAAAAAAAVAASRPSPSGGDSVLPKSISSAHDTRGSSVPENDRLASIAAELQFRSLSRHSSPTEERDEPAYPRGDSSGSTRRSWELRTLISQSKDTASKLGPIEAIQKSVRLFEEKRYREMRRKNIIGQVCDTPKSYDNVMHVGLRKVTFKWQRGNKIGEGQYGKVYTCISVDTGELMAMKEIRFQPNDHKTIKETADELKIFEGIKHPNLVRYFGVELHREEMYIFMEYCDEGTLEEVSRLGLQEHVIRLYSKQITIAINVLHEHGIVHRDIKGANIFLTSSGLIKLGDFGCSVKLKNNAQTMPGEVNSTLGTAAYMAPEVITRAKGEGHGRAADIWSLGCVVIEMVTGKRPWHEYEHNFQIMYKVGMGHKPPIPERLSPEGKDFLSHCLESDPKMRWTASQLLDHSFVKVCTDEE
T2 sequence (Q9UBS0 whole entry): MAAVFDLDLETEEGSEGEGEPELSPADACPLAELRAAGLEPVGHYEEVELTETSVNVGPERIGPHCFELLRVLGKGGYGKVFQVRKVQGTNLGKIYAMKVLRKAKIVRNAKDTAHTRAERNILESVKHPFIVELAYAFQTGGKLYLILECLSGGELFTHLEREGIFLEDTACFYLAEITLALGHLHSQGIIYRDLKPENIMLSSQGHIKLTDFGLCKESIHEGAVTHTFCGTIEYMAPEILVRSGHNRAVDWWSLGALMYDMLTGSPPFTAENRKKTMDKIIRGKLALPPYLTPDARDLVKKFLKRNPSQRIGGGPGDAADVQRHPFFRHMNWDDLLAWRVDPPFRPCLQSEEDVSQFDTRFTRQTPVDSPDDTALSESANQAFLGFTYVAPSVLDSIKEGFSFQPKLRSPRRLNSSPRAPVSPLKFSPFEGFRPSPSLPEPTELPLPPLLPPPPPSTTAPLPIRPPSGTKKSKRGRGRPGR

Compound: O=C(c1ccc(F)cc1)C1CCN(CCn2c(=O)[nH]c3ccccc3c2=O)CC1 [Ketanserin]
- SILAC ratio, CSK probe-modified peptide [1]: 1.2
- SILAC ratio, KS6B2 probe-modified peptide [2]: 1.1
- SILAC ratio, M3K4 probe-modified peptide [3]: 1.2
- SILAC ratio, M4K3 probe-modified peptide [4]: 1.4

Compound: Fc1ccc(C(=C2CCNCC2)c2ccc(F)cc2)cc1 [RF001, 4-(Bis(4-fluorophenyl)methylene) piperidine]
- SILAC ratio, CSK probe-modified peptide [1]: 1.1
- SILAC ratio, KS6B2 probe-modified peptide [2]: 1.7
- SILAC ratio, M3K4 probe-modified peptide [3]: 0.8
- SILAC ratio, M4K3 probe-modified peptide [4]: 1.1

Compound: Cc1nc2sccn2c(=O)c1CCN1CCC(=C(c2ccc(F)cc2)c2ccc(F)cc2)CC1 [Ritanserin]
- SILAC ratio, CSK probe-modified peptide [1]: 1.8
- SILAC ratio, KS6B2 probe-modified peptide [2]: 1.4
- SILAC ratio, M3K4 probe-modified peptide [3]: 1.9
- SILAC ratio, M4K3 probe-modified peptide [4]: 1.8
